Data: PubChem BioAssay AID504765 (Sanford-Burnham Center for Chemical Genomics, 2011)
Calls of active or inactive are those of the source. No rule for the calls is given here.

These compounds were tested against glucose-6-phosphate dehydrogenase-6-phosphogluconolactonase (Plasmodium falciparum 3D7) (assay: PfG6PD inhibitor potency, dose response, biochemical, fluorescence intensity (AID 504765)). Settings: Recombinant PfG6PD enzyme, fluorescence intensity (NADPH).
`Cc1cc(NC(=O)c2oc3ccccc3c2C)ccc1-n1cnnn1` gave an IC50 of 4.54 µM. For `Cc1ccc(NS(=O)(=O)c2ccccc2Cl)c2c1CC(C)(C)O2`, the IC50 was 8.18 µM. Compound `O=C(CSc1nc2ccc(Cl)cc2[nH]1)NC1CCCc2ccccc21` (centres undefined) has an IC50 of 15.6 µM. `CCC(=O)OCOc1ccc(/C=C2/CCC(CN(C)C)C2=O)cc1` (centres undefined) showed an IC50 of 6.86 µM. In the case of `CCc1cc(-c2n[nH]c(C)c2-c2nc3ccccc3n2C)c(O)cc1O`, the IC50 is reported as “inactive”. Compound `Cc1cc(C)c2c(=O)n(CC(=O)N3CCC(N4CCCCC4)CC3)sc2n1` has an IC50 of 3.88 µM. `CC1CCc2[nH]c3ccc(C(=O)N(C)CC(=O)Nc4ccccc4C(F)(F)F)cc3c2C1` (centres undefined) gave an IC50 of 5.61 µM. In the case of `COc1cccc(CNc2ccc3[nH]c(=O)[nH]c3c2)c1OCc1ccccc1Cl`, the IC50 is reported as “inactive”. For `CC(=O)OCC1(C)CN(c2ccccc2)NC1=O` (centres undefined), the IC50 was 5.19 µM. Work on `Cc1c(/C=C/C(=O)c2ccc(Cl)s2)cnn1C` yielded an IC50 of 9.12 µM. Work on `COC1=C(N)C(=O)c2nc(C)ccc2C1=O` yielded an IC50 of 6.3 µM. In the case of `CC(=O)Nc1cc2c(cc1[N+](=O)[O-])-c1ccccc1C2O` (centres undefined), the IC50 is reported as 20 µM. For `COc1cc(C(=O)O/N=C2\C=CC(=O)C=C2C)cc(OC)c1OC`, the IC50 was 14.1 µM. `CCCNC(=O)Cn1sc2nc(C)cc(C)c2c1=O` was tested, and the IC50 was 3.13 µM. Work on `CN=c1nc(-c2ccccc2)n(-c2ccccc2)s1` yielded an IC50 of 4.82 µM. Work on `Cc1ccc(-c2nc(N)s[n+]2-c2ccccc2)cc1` yielded an IC50 of 9.13 µM. For `CCC(CO)[n+]1c(C)cc(/C=C2\Sc3ccccc3N2Cc2ccccc2)cc1C` (centres undefined), the IC50 was 12.2 µM. With `O=C(Nc1ccccn1)c1sc2cc([N+](=O)[O-])ccc2c1Cl` the IC50 was “inactive”. Compound `CC(CNc1ccccc1O)C(=O)O` (centres undefined) has an IC50 of 6.16 µM. For `CN1/C(=C\C(=O)c2cccs2)Sc2ccccc21`, the IC50 was 7.44 µM. For `CN(C)c1ccc(C=c2c3cc(O)ccc3n3c2cc(-c2ccccc2)[n+]3C)cc1`, the IC50 was 9.89 µM. `CC(=O)Nc1ccc(S(=O)(=O)/N=C2\C(=O)c3ccccc3C([O-])=C2n2cc[n+](-c3ccccn3)c2)cc1` gave an IC50 of 12.9 µM. `COc1ccc2c(c1)c(=Cc1ccc(N(C)C)cc1)c1cc(-c3ccccc3)[n+](C)n12` was tested, and the IC50 was 17.2 µM. `O=C1C(Cl)=C(NCCc2ccccc2)C(=O)c2ccccc21` gave an IC50 of 3.32 µM. For `CCN1/C(=C/C=C/C=C/C=C/c2sc3ccccc3[n+]2CC)Sc2ccccc21`, the IC50 was 7.54 µM. For `Cc1cc(SCC(=O)N/N=C/c2ccco2)nc2ccccc12`, the IC50 was 8.11 µM. Compound `Oc1cc(CNCc2ccccc2)c(O)cc1CNCc1ccccc1` has an IC50 of 3.36 µM. With `Fc1cccc(Cl)c1CNc1ccc(N2CCCC2)cc1` the IC50 was 4.06 µM. `O=S(=O)(Nc1ccc(Cl)cc1)c1ccc(N2CCOCC2)c(NC(=S)NCCN2CCOCC2)c1` showed an IC50 of 15.1 µM.
